In patent US5622948A, “Pyrrole pyridazine and pyridazinone anti-inflammatory agents” (Syntex (U.S.A.) Inc., priority 1994, dated 1997):
Each block holds one compound with its values, some of them ahead of it.

How the values were obtained:
COX II = biological target: T1, COX II (Homo sapiens, UniProt P35354); assay: radiometric assay, COX II inhibition (human recombinant, baculovirus expressed, partially purified); assay type: biochemical; set-up: A 1.8 Kb DNA fragment containing the coding region of human COX II was generated by PCR; made in house; host or cells: Sf9 insect cells, baculovirus; settings: radiometric assay, human recombinant baculovirus expressed enzyme; read-out: COX II IC50 (Table 2)
T1 sequence (P35354 18-604): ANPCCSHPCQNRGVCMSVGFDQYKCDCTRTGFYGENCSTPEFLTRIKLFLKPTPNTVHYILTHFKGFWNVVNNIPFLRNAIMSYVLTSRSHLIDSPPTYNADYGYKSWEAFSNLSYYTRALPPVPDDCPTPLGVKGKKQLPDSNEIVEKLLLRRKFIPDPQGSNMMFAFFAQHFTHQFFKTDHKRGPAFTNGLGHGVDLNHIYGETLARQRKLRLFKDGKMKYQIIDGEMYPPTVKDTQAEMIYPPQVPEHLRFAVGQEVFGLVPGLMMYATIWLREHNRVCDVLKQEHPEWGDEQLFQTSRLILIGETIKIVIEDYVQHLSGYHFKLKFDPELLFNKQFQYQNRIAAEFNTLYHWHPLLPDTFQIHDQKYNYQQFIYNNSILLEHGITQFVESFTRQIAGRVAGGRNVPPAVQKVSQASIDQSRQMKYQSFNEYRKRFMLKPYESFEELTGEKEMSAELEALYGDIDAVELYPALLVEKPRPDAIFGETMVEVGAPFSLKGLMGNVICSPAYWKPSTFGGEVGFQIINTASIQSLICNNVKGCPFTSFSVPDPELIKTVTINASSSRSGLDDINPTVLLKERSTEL
Experimental: (§1) Human prostaglandin G/H synthase I and II ("COX I" and "COX II") were expressed in the baculovirus expression system and purified to high levels.
(§2) As described above, human recombinant COX I and COX II were cloned and expressed in a baculovirus system. Partially purified COX I and COX II enzymes were used for screening compounds for their ability to inhibit COX I and COX II activity, as described below.
(§3) Compound (16), in 2 μl DMSO, and control samples (carrier vehicles only) were mixed with COX I or COX II samples (e.g. fractions from the chromatography columns) in polypropylene tubes and preincubated with 2 mM phenol for 5 minutes and then with 1 μM hematin for an additional 5 minutes. The 150 μl reaction mixture consisted of 50 mM Tris --HCl, pH 7.9, 2 mM EDTA, 10% glycerol, 200 μM phenol, 1 μM hematin, 1-25 μl sample and 20 μM 1-[^14 C] arachidonate (80.000-100.000 cpm/tube). After 45 seconds at room temperature, the reaction was terminated by adding 200 μl of 2N HCl and 750 μl water. An aliquot (950 μl) of the reaction mixture was loaded onto a 1 ml C~ Sep-Pak (J. T. Baker, Phillipsburg, N.J.) which had been previously washed with 2-3 ml methanol and equilibrated with 5-6 ml distilled water. Oxygenated products were quantitatively eluted with 3 ml of acetonitrile, H2 O and acetic acid (50:50:0.1, v/v) and the radioactivity in the eluate determined in a scintillation counter.
(§4) Human recombinant 10 min incubation with Compound (16)
(§5) baculovirus 45 sec incubation with 20 μM AA
(§6) partially purified Separation of radioactive products

COX I = COX I (Homo sapiens, UniProt P23219); assay: radiometric assay, COX I inhibition (human recombinant, baculovirus expressed, partially purified); assay type: biochemical; set-up: A 2 Kb fragment containing the coding region of COX I; made in house; host or cells: Sf9 insect cells, baculovirus (cDNA from Oxford Biomedical Research); settings: radiometric assay, human recombinant baculovirus expressed enzyme; read-out: COX I IC50 (Table 2)
Experimental: as §1, §2, §3, §4, §5, §6

[1] = physical stability / phase transformation of crystal forms of Compound (16); assay type: physicochemical; settings: for conversion when suspended in alcohol or ethyl acetate: suspended in alcohol (Phase II: alcohol or ethyl acetate)
Text: Phase I was obtained when Compound (16) was recrystallized from methanol, ethanol, ethanol/acetic acid, acetone, ethyl acetate, ethyl acetate/acetic acid, dichloromethane, tetrahydrofuran or tetrahydrofuran/ethyl acetate.
Phase II was obtained when Compound (16) was recrystallized from toluene.
Phase III was obtained by rapid precipitation of Compound (16) from acetic acid/water.
Hydrate I, a monohydrate, was also obtained by slow recrystallization of Compound (16) from acetic acid/water.

[2] = system: adjuvant-induced arthritis; assay: adjuvant-induced arthritis in the rat; assay type: in vivo; settings: second test
[3] = system: PGE2 levels in the air-pouch exudate; assay: PGE2 in exudate of carrageenan-induced inflammation (air-pouch model) in rats; assay type: in vivo, rat; settings: 2-5 mg/kg
stomach PGE2 = assay type: in vivo, rat; settings: 2-5 mg/kg
Experimental: To examine the effect of Compound (16) on prostaglandin (PG) synthesis in inflamed tissues, Compound (16) was tested in a carrageenan-induced inflammation (air-pouch model) in rats. PGE2 levels in the air-pouch exudate were measured by enzyme immunoassay in rats treated with 0.1-30 mg/kg of Compound (16). […] […].
To test the effects of Compound (16) on PG synthesis in non-inflamed tissue, PGE2 levels were measured in the stomach of rats from the above experiments. […]

stomach and intestines = settings: general statement (background); cited from earlier work

COX I, sequence (P23219 24-599): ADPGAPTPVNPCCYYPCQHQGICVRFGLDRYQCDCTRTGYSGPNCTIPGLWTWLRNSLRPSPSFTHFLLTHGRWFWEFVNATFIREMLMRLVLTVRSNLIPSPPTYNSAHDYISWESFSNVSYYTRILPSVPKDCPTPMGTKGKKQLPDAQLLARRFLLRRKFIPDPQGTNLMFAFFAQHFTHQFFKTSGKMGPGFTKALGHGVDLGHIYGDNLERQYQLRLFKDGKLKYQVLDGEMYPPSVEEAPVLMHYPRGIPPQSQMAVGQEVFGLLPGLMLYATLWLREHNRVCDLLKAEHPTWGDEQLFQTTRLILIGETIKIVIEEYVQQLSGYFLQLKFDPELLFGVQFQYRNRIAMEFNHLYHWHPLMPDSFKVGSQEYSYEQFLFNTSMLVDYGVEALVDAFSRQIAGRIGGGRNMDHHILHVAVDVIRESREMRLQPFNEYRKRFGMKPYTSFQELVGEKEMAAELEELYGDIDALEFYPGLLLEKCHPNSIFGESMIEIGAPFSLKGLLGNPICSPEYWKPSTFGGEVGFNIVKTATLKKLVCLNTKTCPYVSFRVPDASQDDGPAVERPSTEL

IC50 (COX II): 0.61 µM
IC50 (COX I): 64.7 µM
SMILES: CC(=O)OCn1nc(Cc2cc(C)c(C(=O)c3ccc(Cl)cc3)n2C)ccc1=O [Compound 161, acetic acid 2-{3-[5-(4-chloro-benzoyl)-1,4,-dimethyl-1H-pyrrol-2-ylmethyl]-6-oxo-6H-pyridazin-1-yl}-methyl ester]

IC50 (COX II): 0.91 µM
IC50 (COX I): 7.9 µM
SMILES: COc1ccc(Cn2nc(Cc3cc(C)c(C(=O)c4ccc(Cl)cc4)n3C)ccc2=O)cc1 [Compound 168, 6-[5-(4-chloro-benzoyl)-1,4,-dimethyl-1H-pyrrol-2-ylmethyl]-2-(4-methoxybenzyl)-2H-pyridazin-3-one]

SMILES: Cc1cc(Cc2ccc(=O)[nH]n2)n(C)c1C(=O)c1ccc(Cl)cc1 [Hydrate I]
physical stability, duration ([1]; 40° C./75% relative humidity): 14 days
physical stability ([1]; 40° C./ambient relative humidity, within 11-95% relative humidity): physically stable
conversion on heating at 120° C. ([1]; 120° C.): phase conversion to another anhydrous crystal form
dehydration at temperatures below 100° C. ([1]; below 100° C., ambient conditions and 23% relative humidity): produced a metastable form that converted back to Hydrate I
conversion when suspended in alcohol or ethyl acetate [1]: can be converted back to Phase I

SMILES: Cc1cc(Cc2ccc(=O)[nH]n2)n(C)c1C(=O)c1ccc(Cl)cc1 [Phase III]
conversion when suspended in alcohol or ethyl acetate [1]: converted to Phase I
conversion when suspended in water [1]: converted to Hydrate I

SMILES: Cc1cc(Cc2ccc(=O)[nH]n2)n(C)c1C(=O)c1ccc(Cl)cc1 [Phase II]
conversion when suspended in alcohol or ethyl acetate [1]: converted to Phase I
conversion when suspended in water [1]: converted to another hydrate, Hydrate II

SMILES: Cc1cc(Cc2ccc(=O)[nH]n2)n(C)c1C(=O)c1ccc(Cl)cc1 [Phase I]
phase transformation on milling and micronization ([1]; milling and micronization): did not cause any phase transformation
conversion when suspended in water [1]: converted to a monohydrate, Hydrate I
physically stable for ([1]; unmilled (-200 μm), 40° C./75% relative humidity): at least 4 days

SMILES: COc1ccc2c(c1)c(CC(=O)O)c(C)n2C(=O)c1ccc(Cl)cc1 [indomethacin, reference compound]
inhibition of adjuvant-induced arthritis ([2]; 0.3 mg/kg/day): 66%
inhibition of adjuvant-induced arthritis ([2]; 0.6 mg/kg/day): 79%
inhibition of PGE2 in the exudates [3]: > 70%
inhibition of stomach PGE2 (stomach PGE2): > 80%
corrosiveness to the stomach and intestines of rats (stomach and intestines): highly corrosive to the stomach and intestines of rats
